Legend:
[1] = Induction of anti-CD3/CD28 antibodies-stimulated human T cell activation at 4 uM assessed fold increase in IL-2 secretion measured by ELISA assay; assay type: functional, T cell line
[2] = Induction of anti-CD3/CD28 antibodies-stimulated human T cell activation at 0.3 uM assessed fold increase in IL-2 secretion measured by ELISA assay; assay type: functional, T cell line
[3] = Induction of anti-CD3 antibodies-stimulated human T cell activation at 8 uM assessed fold increase in IL-2 secretion measured by ELISA assay; assay type: functional, T cell line; further: reference of the scale not given here
[4] = Induction of anti-CD3/CD28 antibodies-stimulated human T cell activation at 1 uM assessed fold increase in CD25 expression measured by ELISA assay; assay type: functional, T cell line
[5] = Induction of anti-CD3/CD28 antibodies-stimulated human T cell activation at 0.3 uM assessed fold increase in CD25 expression measured by ELISA assay; assay type: functional, T cell line
[6] = Induction of anti-CD3 antibodies-stimulated human T cell activation at 8 uM assessed fold increase in CD25 expression measured by ELISA assay; assay type: functional, T cell line; further: reference of the scale not given here
[7] = Induction of anti-CD3 antibodies-stimulated human T cell activation at 1 uM assessed fold increase in CD25 expression measured by ELISA assay; assay type: functional, T cell line; further: reference of the scale not given here
[8] = Induction of anti-CD3/CD28 antibodies-stimulated human CD4+ T cell activation at 10 uM assessed fold increase in CD69 expression measured by flow cytometry analysis; assay type: functional, T cell line
[9] = Induction of anti-CD3/CD28 antibodies-stimulated human CD4+ T cell activation at 1.11 uM assessed fold increase in CD69 expression measured by flow cytometry analysis; assay type: functional, T cell line
[10] = Induction of anti-CD3/CD28 antibodies-stimulated human CD4+ T cell activation at 10 uM assessed fold increase in cell proliferation measured by flow cytometry analysis; assay type: functional, T cell line
[11] = Induction of anti-CD3/CD28 antibodies-stimulated human CD4+ T cell activation at 1.11 uM assessed fold increase in cell proliferation measured by flow cytometry analysis; assay type: functional, T cell line
[12] = Induction of anti-CD3/CD28 antibodies-stimulated human CD8+ T cell activation at 1.11 uM assessed fold increase in CD69 expression measured by flow cytometry analysis; assay type: functional, T cell line
[13] = Induction of anti-CD3 antibodies-stimulated human CD4+ T cell activation at 10 uM assessed fold increase in CD69 expression measured by flow cytometry analysis; assay type: functional, T cell line; further: reference of the scale not given here
[14] = Induction of anti-CD3 antibodies-stimulated human CD4+ T cell activation at 1.11 uM assessed fold increase in CD69 expression measured by flow cytometry analysis; assay type: functional, T cell line; further: reference of the scale not given here
[15] = Induction of anti-CD3 antibodies-stimulated human CD8+ T cell activation at 10 uM assessed fold increase in CD69 expression measured by flow cytometry analysis; assay type: functional, T cell line; further: reference of the scale not given here
[16] = Induction of anti-CD3 antibodies-stimulated human CD8+ T cell activation at 1.11 uM assessed fold increase in CD69 expression measured by flow cytometry analysis; assay type: functional, T cell line; further: reference of the scale not given here
[17] = Induction of anti-CD3 antibodies-stimulated human CD8+ T cell activation at 10 uM assessed fold increase in cell proliferation measured by flow cytometry analysis; assay type: functional, T cell line; further: reference of the scale not given here
[18] = Induction of anti-CD3 antibodies-stimulated human CD8+ T cell activation at 1.11 uM assessed fold increase in cell proliferation measured by flow cytometry analysis; assay type: functional, T cell line; further: reference of the scale not given here
[19] = Induction of anti-CD3/CD28 antibodies-stimulated human T cell activation at 10 uM assessed fold increase in GM-CSF secretion measured by ELISA assay; assay type: functional, T cell line
[20] = Induction of anti-CD3 antibodies-stimulated human T cell activation at 10 uM assessed fold increase in GM-CSF secretion measured by ELISA assay; assay type: functional, T cell line; further: reference of the scale not given here
[21] = Induction of anti-CD3/CD28 antibodies-stimulated human T cell activation at 10 uM assessed fold increase in TNF-alpha secretion measured by ELISA assay; assay type: functional, T cell line
[22] = Induction of anti-CD3/CD28 antibodies-stimulated human T cell activation at 1.11 uM assessed fold increase in TNF-alpha secretion measured by ELISA assay; assay type: functional, T cell line
[23] = Induction of anti-CD3 antibodies-stimulated human T cell activation at 1.11 uM assessed fold increase in TNF-alpha secretion measured by ELISA assay; assay type: functional, T cell line; further: reference of the scale not given here
[24] = Induction of anti-CD3/CD28 antibodies-stimulated human T cell activation at 10 uM assessed fold increase in IFN-gamma secretion measured by ELISA assay; assay type: functional, T cell line
[25] = Induction of anti-CD3/CD28 antibodies-stimulated human T cell activation at 1.11 uM assessed fold increase in IFN-gamma secretion measured by ELISA assay; assay type: functional, T cell line
[26] = Induction of anti-CD3 antibodies-stimulated human T cell activation at 10 uM assessed fold increase in IFN-gamma secretion measured by ELISA assay; assay type: functional, T cell line; further: reference of the scale not given here
[27] = Induction of anti-CD3 antibodies-stimulated human T cell activation at 1.11 uM assessed fold increase in IFN-gamma secretion measured by ELISA assay; assay type: functional, T cell line; further: reference of the scale not given here
[28] = Induction of allogenic human T cell activation at 10 uM assessed fold increase in cell proliferation; assay type: functional, T cell line
[29] = Induction of anti-CD3 antibodies-stimulated human exhausted T cell activation assessed fold increase in IL-2 secretion measured by ELISA assay; assay type: functional, T cell line; further: reference of the scale not given here
[30] = Induction of anti-CD3 antibodies-stimulated human exhausted T cell activation assessed fold increase in GM-CSF secretion measured by ELISA assay; assay type: functional, T cell line; further: reference of the scale not given here
[31] = Induction of anti-CD3 antibodies-stimulated human exhausted CD8+ T cell activation assessed fold increase in CTLA4 expression measured by flow cytometry analysis; assay type: functional, T cell line; further: reference of the scale not given here
[32] = Induction of anti-CD3/CD28 antibodies-stimulated human anergic T cell activation at 10 uM assessed fold increase in IFN-gamma secretion measured by ELISA assay; assay type: functional, T cell line
[33] = Induction of anti-CD3/CD28 antibodies-stimulated human anergic T cell activation at 0.37 uM assessed fold increase in IFN-gamma secretion measured by ELISA assay; assay type: functional, T cell line
[34] = system: B cell; assay: Induction of anti-IgM-stimulated human CD20+ B cell activation at 10 to 1000 uM assessed as increase in CD69 expression measured as mean fluorescence intensity AUC by flow cytometry analysis; assay type: functional, cell-based; details: dose 10-1000 µM
[35] = Induction of activation of human CD56+ CD3- NK cells co-cultured with human K562 cells in 1:1 ratio and assessed as increase in IFN-gamma secretion at 10 uM measured by ELISA assay; assay type: functional, Natural killer cell
[36] = Induction of activation of human CD56+ CD3- NK cells co-cultured with human K562 cells in 1:1 ratio and assessed as increase in TNF-alpha secretion at 10 uM measured by ELISA assay; assay type: functional, Natural killer cell
[37] = Induction of activation of human CD56+ CD3- NK cells co-cultured with human K562 cells in 1:1 ratio and assessed as increase in IFN-gamma secretion at 2.5 uM measured by ELISA assay; assay type: functional, Natural killer cell
[38] = Induction of activation of human CD56+ CD3- NK cells co-cultured with human K562 cells in 1:1 ratio and assessed as increase in TNF-alpha secretion at 2.5 uM measured by ELISA assay; assay type: functional, Natural killer cell

Row | Structure (SMILES) | fold change (FC) [1] | fold change (FC) [2] | fold change (FC) [3] | fold change (FC) [4] | fold change (FC) [5] | fold change (FC) [6] | fold change (FC) [7] | fold change (FC) [8] | fold change (FC) [9] | fold change (FC) [10] | fold change (FC) [11] | fold change (FC) [12] | fold change (FC) [13] | fold change (FC) [14] | fold change (FC) [15] | fold change (FC) [16] | fold change (FC) [17] | fold change (FC) [18] | fold change (FC) [19] | fold change (FC) [20] | other results
1 | Cn1cnnc1CC1(c2cccc(NC(=O)c3nc4c(C(F)(F)F)cccc4[nH]3)c2)COC1 | >=7.5 | 2.51 | >=0.201 | 1.51 | 1.31 | >=1.001 | 0.801 | >1.601 | 1.401 | >4 | >4 | 1.201 | >1.601 | >1.601 | 1.401 | 1.201 | >4 | >4 | >4 | 2.01 | fold change (FC) [21]: 2.01; fold change (FC) [22]: 1.51; fold change (FC) [23]: 1.51; fold change (FC) [24]: 2.01; fold change (FC) [25]: >4; fold change (FC) [26]: 2.01; fold change (FC) [27]: <=2; fold change (FC) [28]: <=2; fold change (FC) [29]: >3.01; fold change (FC) [30]: <=1.4; fold change (FC) [31]: >1.61; fold change (FC) [32]: >4.01; fold change (FC) [33]: <=2.5; AUC [34]: 0.5; fold change (FC) [35]: 2.01; fold change (FC) [36]: 2.01; fold change (FC) [37]: 1.01; fold change (FC) [38]: 1.01
2 | C[C@H](Sc1nncn1C)c1cccc(NC(=O)c2cc(C(=O)N3CC[C@H](O)C3)ccn2)c1 | <=1 | <=1 | <=0.05 | 1.01 | 1.01 | 0.801 | 0.601 | >1.601 | 1.401 | >4 | >4 | 1.201 | >1.601 | >1.601 | 1.401 | 1.401 | >4 | >4 | >4 | 2.01 | fold change (FC) [21]: 2.01; fold change (FC) [22]: 2.01; fold change (FC) [23]: 1.51; fold change (FC) [24]: >4; fold change (FC) [25]: 2.01; fold change (FC) [26]: >4; fold change (FC) [27]: 3.01; fold change (FC) [28]: <=2; fold change (FC) [29]: <=2.5; fold change (FC) [30]: <=1.4; fold change (FC) [31]: <=1.4; fold change (FC) [32]: 2.51; fold change (FC) [33]: <=2.5; AUC [34]: < 0.5; fold change (FC) [35]: 1.01; fold change (FC) [36]: <=1; fold change (FC) [37]: <=1; fold change (FC) [38]: <=1
3 | C[C@H](Cc1nncn1C)c1cccc(N2Cc3c(ccnc3C3CC3)C2=O)c1 | 1.01 | 1.01 | >=0.201 | 1.01 | 1.01 | >=1.001 | 0.601 | 1.401 | <=1.2 | >4 | 2.01 | <=1.2 | 1.201 | <=1.2 | 1.201 | <=1.2 | 3.01 | <=2 | >4 | 2.01 | fold change (FC) [21]: 2.01; fold change (FC) [22]: 1.51; fold change (FC) [23]: <=1.5; fold change (FC) [24]: 2.01; fold change (FC) [25]: <=2; fold change (FC) [26]: 2.01; fold change (FC) [27]: <=2; fold change (FC) [28]: <=2; fold change (FC) [29]: <=2.5; fold change (FC) [30]: <=1.4; fold change (FC) [31]: <=1.4; fold change (FC) [32]: 2.51; fold change (FC) [33]: <=2.5; AUC [34]: 0.5; fold change (FC) [35]: 2.01; fold change (FC) [36]: 2.01; fold change (FC) [37]: 1.01; fold change (FC) [38]: 1.01
4 | Cn1cnnc1[C@@H]1C[C@@H]1c1cccc(N2Cc3c(ccnc3C(F)(F)F)C2=O)c1 | 1.01 | 1.01 | 0.101 | 1.01 | 1.01 | 0.801 | 0.601 | 1.401 | <=1.2 | >4 | <=2 | <=1.2 | <=1.2 | <=1.2 | <=1.2 | <=1.2 | <=2 | <=2 | 2.01 | <=1.5 | fold change (FC) [21]: 2.01; fold change (FC) [22]: <=1.5; fold change (FC) [23]: <=1.5; fold change (FC) [24]: <=2; fold change (FC) [25]: <=2; fold change (FC) [26]: <=2; fold change (FC) [27]: <=2; fold change (FC) [28]: <=2; fold change (FC) [29]: <=2.5; fold change (FC) [30]: <=1.4; fold change (FC) [31]: <=1.4; fold change (FC) [32]: 2.51; fold change (FC) [33]: <=2.5; AUC [34]: 1.01; fold change (FC) [35]: 2.01; fold change (FC) [36]: 1.01; fold change (FC) [37]: <=1; fold change (FC) [38]: <=1

Source: ChEMBL document CHEMBL5050844 (2019)
